From a melting point compilation (Tetko et al.; mined from patent text by program, amines drawn as free bases though some values may be those of a salt)

melting point [°C]	SMILES
204 to 209	COc1ccc(OC)c(S(=O)(=O)n2c(CCC(=O)O)cc3nc(Cl)ccc32)c1
144 to 147	CCn1nc(-c2ccc(F)cc2)c(-c2ccncc2)c1C(=O)N(C)Cc1ccccn1
94 to 96	Nc1nccn2c(C3CCC3)nc(-c3ccc4cccnc4c3)c12
222 to 225	O=C(O)C1CCCc2c(-c3ccc(C(F)(F)F)cc3)noc2C1 (centres undefined)
178 to 180	Cc1cc2nc(Cl)c(Cl)nc2c(N)c1C
195 to 200	Cc1cccc(C(=O)n2c3c(c4ccccc42)CC(C(=O)O)(C(=O)O)CC3)c1
57 to 58	COC(=O)CCc1conc1-c1ccc(F)c(Br)c1
265 to 268	Clc1ccc2c(NCc3ccccc3)nc(-n3ccnc3)nc2c1
100 to 101	CCOC(=O)CCC(=O)c1ccc(CCN(CC=Cc2ccc(Cl)cc2)S(=O)(=O)c2ccc(Cl)cc2)cc1
145	O=C(Nc1ccccc1Cl)Oc1ccc2c(c1)N(Cc1ccccc1)CCC2
144 to 145	Cc1csc2ncc(C(O)CCc3ccccc3)n12 (centres undefined)
70	CCCCCCCCCCS(=O)(=O)NC(=O)c1cnc(C(=O)NCC(=O)OCC)c(OC)c1
216 to 219	O=c1c2c(Cc3ccc(C(F)(F)F)cc3)n[nH]c2c2cccnc2n1-c1ccccc1
62 to 64	CCCCC[C@@H](CNC(=O)Nc1c(OCC)ncnc1N(C)C)c1cccc2c1OCO2
185 to 186	Cc1csc(N2CCN(Cc3ccc(C(=O)NCc4ccccc4)cc3)C2=O)n1
91 to 92	CC(C)(C)NC(=O)c1ccccc1Cc1ccccc1
90 to 92	CCC(=O)NC(C)(C)C
183 to 185	Cc1sc2c(Br)c3ccccc3c(-c3ccc(O)c([N+](=O)[O-])c3)c2c1C
110 to 114	Clc1ccc2c(-n3cc(Cl)cn3)ccnc2c1
171 to 173	O=c1oc(-c2ccc(S(=O)c3ccccc3)cc2)cc(O)c1SCCc1ccccc1 (centres undefined)
140 to 142	O=C1CCC(N2Cc3c(OCc4ccc(CN5CCC(O)(c6ccccc6)CC5)cc4)cccc3C2=O)C(=O)N1 (centres undefined)
191 to 193	CC(=O)CC(=O)Nc1nc(C)c(C)s1
273 to 275	CCOC(=O)CC[C@H](NC(=O)c1ccc(C(=Cc2cnc3nc(NC(=O)C(C)(C)C)nc(O)c3c2)COC2CCCCO2)cc1)C(=O)OCC (some centres undefined)
180	CCS(=O)(=O)Nc1cccc(C=C2c3ccccc3CCc3ccccc32)c1

melting point [°C]	SMILES
> 240	Cc1nc2c(c(=O)[nH]1)-c1cc(S(=O)(=O)Nc3ccc([N+](=O)[O-])cc3)ccc1CC2
164 to 165	COc1ccc(C(=O)Nc2ccccc2)cc1NCc1ccccc1
64 to 65	CCCn1nnn(-c2cc(OS(C)(=O)=O)c(Cl)cc2Cl)c1=O
187 to 189	O=c1cc(NCCN2CCN(c3cccc(Cl)c3)CC2)cn[nH]1
160 to 161	Cc1nnc(NC(=O)C(c2ccccc2)c2ccccc2)o1
234 to 235	CCc1ccc(-c2ccc(C(=O)N[C@@H]3CCc4cccc(N5CCN(C)CC5)c4C3)cc2)cc1
52 to 53	CC(=O)OC[C@](O)(CO)c1ccc(F)cc1F
153 to 155	CCOC(=O)c1c(CN(CC)CC)nc2sc3c(c2c1-c1ccc(OC)c(OC)c1)CCN(C(=O)NC)C3
144 to 145	COc1cc([N+](=O)[O-])c(N)cc1OC(F)F
174 to 176	NC1(c2ccccc2Cl)C(=O)Nc2ccc(Cl)cc21 (centres undefined)
150 to 153	CC1CCC(N(CC2CCC(CN(C(=O)Nc3ccc(N(C)C)cc3)C3CCC(C)CC3)CC2)C(=O)Nc2ccc(N(C)C)cc2)CC1 (centres undefined)
195	Cc1c(NC(=O)c2ccc(OCC3CC3)cc2)ccc2cc(CN3CCC(C)(O)CC3)[nH]c12
> 270	CCCC1=C(C#N)C(c2ccccc2Cl)c2c(n[nH]c2C2CCCCC2)N1 (centres undefined)
138 to 139	CCc1ccc(NC(=O)NCC2(c3ccccc3)CCCCC2)cc1
182 to 184	CCN1CCC(NC(=O)Nc2ccccc2CCc2cc(C(C)(C)C)c(O)c(C(C)(C)C)c2)CC1
99 to 101	Cc1ccc(S(=O)(=O)N2CCC[C@H]2C(=O)N[C@@H](Cc2ccc(OCCN3CCOCC3)cc2)C(=O)O)cc1
142 to 146	Oc1ccc(SC2CC3CC(Sc4ccc(O)cc4)C2C3)cc1 (centres undefined)
148 to 149	N#CC(C(=O)c1cccnc1)c1ccccc1 (centres undefined)
149 to 153	CC(=O)Oc1c2cc(C(F)(F)F)c(C(F)(F)F)cc2c(OC(C)=O)c2cc3ccccc3cc12
54	CCCCCC1C=CC(c2ccc(C(F)(F)F)cc2)=CC1 (centres undefined)
93 to 94	CCCCCCCCCC#Cc1ccnc(C(=O)O)c1
189 to 190	CC(C)c1cc(-c2c3ccccc3c(Br)c3sc4ccccc4c23)cc(C(C)C)c1O
140 to 142	CCOC(Cc1ccc(OCCn2c(CC)nc(-c3ccccc3)cc2=O)cc1)C(=O)O (centres undefined)
155	ON=C(Cc1ccc(F)cc1)c1ccncc1

melting point [°C]	SMILES
260 to 263	CCOP(=O)(Cc1nnc2c(=O)[nH]c3cc(C(F)(F)F)c(N)cc3n12)OCC
115 to 116	CCCCCC(=O)NCCc1ccc(S(=O)(=O)NC(=O)c2ccc(C(=O)NCC(=O)O)nc2)cc1
229 to 231	O=S1CCn2c1nc(-c1ccc(F)cc1)c2-c1ccncc1 (centres undefined)
191	CCOc1ccc(C(CC(N)=O)N2C(=O)c3ccccc3C2=O)cc1 (centres undefined)
94 to 95	C[C@H](C#Cc1sccc1COCc1ccc(F)cc1)N(O)C(N)=O
154 to 155	CN(C)CC1COC2(CCN(c3nc4c(cc3F)C=C(C(=O)O)CN4c3ccc(F)cc3F)C2)O1 (centres undefined)
134 to 136	CN(CCNCc1c(O)c(Br)cc2c1CCC2(C)C)CCNC(=O)c1nc(Cl)c(N)nc1N
123 to 127	O=C1CC(O)CC(C=CC2=C(c3ccc(F)cc3)CC3CCC2C3)O1 (centres undefined)
219 to 221	Cc1ccc2c(c1)N(CC(=O)NC(C)(C)C)C(=O)C(Br)CC2c1ccccc1C (centres undefined)
142 to 155	CC(=O)NCCNCc1ccc(-c2cc3ncnc(Nc4ccc5[nH]ccc5c4)c3s2)cc1
188 to 190	O=C(/C=C/c1ccc2cc[nH]c2c1)CC(=O)/C=C/c1ccc(OCc2ccccn2)cc1O
263 to 264	CS(=O)(=O)c1ccc(-c2coc3ccc(-c4nnc(N)o4)cc23)cc1Cl
228 to 229	CCNC(=O)c1ccc(N2CCN(Cc3cc4c(c(OC)c3)OC(C)C(=O)N4)CC2)c(F)c1 (centres undefined)
131 to 135	CCCCCCCCCCCCCCOc1ccc2cc(C(=O)O)oc2c1
150 to 151	CNC(=O)C1CN=CNC1 (centres undefined)
160 to 163	Cc1cc2c(cc1O)C(C1(C3CCCc4ccccc43)CC1)N(C)CC2 (centres undefined)
169 to 170	C=Cn1ccnc1C(O)(c1ccc(C(C)(C)C)cc1)c1ccc(C(C)(C)C)cc1
74 to 76	COc1ccc(C(=O)c2ccccc2)c(S)c1
124 to 130	O=[N+]([O-])c1nn(-c2c(Cl)cc(C(F)(F)F)cc2Cl)cc1S(=O)C(F)(F)F (centres undefined)
104 to 105	Cn1c(C#N)cc(Br)c1Br
140 to 141	COc1ccc(C2COc3c(ccc(O)c3C)C2)cc1 (centres undefined)
170 to 172	CCS(=O)(=O)c1ccc(C(=O)O)c(Cl)c1Cl
39 to 40	CCC(=O)c1ccc(OC)c(C)c1C
62 to 63	COc1ccc(C(SC)c2ccc(OC)cc2)cc1

melting point [°C]	SMILES
297 to 299	Cc1ccc(-c2c3c(cc4ccc5c(c24)OCO5)C(=O)NC3=O)cc1
70 to 73	CSCC(C)C(=O)N(C)c1sc(-c2cccnc2)nc1Cl (centres undefined)
128	O=Cc1ccccc1-n1nnnc1CC(=O)C(F)(F)F
196	COc1cc2ncnc(Nc3cccc(Cl)c3F)c2cc1OC1CCN(C(=O)CO)CC1
174 to 175	CC(=O)c1ccc(NS(=O)(=O)c2sc3ccc(F)cc3c2C)c(S(C)(=O)=O)c1
192 to 220	COc1cc(C2CCN(C[C@H](O)CO)CC2)ccc1Nc1ncc2ccc(-c3cccc(S(=O)(=O)NC(C)(C)C)c3)n2n1
77.5 to 78.5	CC1(C)CCc2c1cc(C=O)c(O)c2Br
133	CCOC(OCC)C(O)(Cc1c(NC(=O)C(C)(C)C)cnc(Cl)c1C)c1ccccc1 (centres undefined)
35 to 40	CCCCCCCCCCCCCCCCCCN(C)[Si](C)(C)C
238	COc1cc2ncnc(Nc3cccc(Br)c3)c2cc1OC(C)=O
186 to 188	CCOC(=O)Cn1c(C(=O)OCC)cc(=O)c2cc(O)c(=O)ccc21
212 to 215	Cc1csc(Nc2cc3ccccc3cn2)n1
156	C1=C(c2cccc3[nH]ccc23)CNCC1
176 to 179	COCCOc1ccc(OCC(O)CNCCOc2cccc(O)c2C(N)=O)cc1 (centres undefined)
144 to 146	CN(C)C(=O)c1cc(O)ccc1O
> 250	CCCC1=C(C#N)C(c2cccc(C(F)(F)F)c2Cl)c2c[nH]nc2N1 (centres undefined)
162	Cc1cc(Oc2ccc(-c3ccn(CC4CC4)c(=O)c3C(F)(F)F)cc2F)cc(C)n1
214 to 216	CCCCc1nc2c(N)nc3cc(-c4ccccc4)ccc3c2n1CCCS(C)(=O)=O
108 to 110	Cc1cc(C)nc(Oc2ccc([N+](=O)[O-])cc2)n1
128 to 132	COC(c1sc2ccc(Cl)cc2c1Cl)C(C)NC(=O)c1cn(C)nc1C(F)F (centres undefined)
97 to 98	Cn1cc(S(=O)(=O)NC(C)(C)C)cc1C=O
123 to 133	COc1ccc(C(O)Cc2ccncc2)c2c1OC1(CCCCC1)CC2 (centres undefined)

SMILES	melting point [°C]
Fc1ccccc1C1=NCc2cnc(-c3ccccc3)n2-c2ccc(Cl)cc21	241 to 243
CCN1CCC(O)(c2cccc(F)c2F)C1 (centres undefined)	119 to 120
O=c1c2c(F)cccc2nc(C(S)c2ncnc3[nH]cnc23)n1-c1ccccc1Cl (centres undefined)	223 to 224
c1ccc2c(c1)CC1(CCN(CCc3c[nH]c4ccccc34)CC1)O2	167 to 169
C[C@@H]1C(=O)C[C@H]2C[C@@H]1OO[C@@]2(C)/C=C\c1cccc(C(F)(F)F)c1	101
